Patent US11401264B2, “Heterocyclic compound” (Orizuru Therapeutics, Inc., priority 2018, dated 2022)

Tested on: cardiomyocytes from double knock-in human iPS cell lines (mCherry at TNNI3 locus)
Experiment: Experimental Example 1: mCherry (TNNI3 reporter) immunostaining measured by high contents screening
Type: cell-based
Design: key to average fluorescent intensity (at 30 μM): —: The symbol in Table 2 means that the average fluorescent intensity cannot be evaluated due to cell decrease
Settings: read on 8th day, Alexa 647 anti-mCherry, control well 797; for average fluorescent intensity (at 1 μM): test compound 1 μM added on 3rd and 6th culture days; for average fluorescent intensity (at 30 μM): test compound 30 μM added on 3rd and 6th culture days
Method: For detection of cardiomyocyte maturation, double knock-in human iPS cell lines, in which reporter protein sequences, EmGFP (Sequence Number 1) and mCherry (Sequence Number 2) were inserted into gene loci for TNNI1 and TNNI3, respectively, were prepared (the human iPS cells were prepared from episomal vector (loaded gene; OCT3/4, KLF4, SOX2, L-MYC, LIN28, mouse p53DD) using PBMC (LP_167, Sample ID: 20130318) purchased from CTL (reference literature; Okita K, et al. Stem Cells. 2012 Nov. 29. doi: 10.1002/stem.1293)).
The maintenance culture of the above-mentioned reporter iPS cell lines was carried out by a conventional method (Okita K, et al. Stem Cells. 2012 Nov. 29. doi: 10.1002/stem.1293).
For differentiation induction into cardiomyocytes, the reporter iPS cell lines were treated with 0.5×TrypLE select (Life Technologies, diluted in 1/2 with 0.5 mM EDTA/PBS) for 4 to 5 minutes, and the cells were exfoliated using a cell scraper (IWAKI), and then dissociated into the single cell by pipetting. The medium was removed by centrifugation (1,000 rpm, 5 min), and the obtained cells were seeded on a bioreactor (ABLE) by 1×10^7 cells per 30 mL of the bioreactor, and then cultured in a medium prepared by adding 1% L-glutamine, transferrin 150 μg/mL, ascorbic acid 50 μg/mL (Sigma), monothioglycerol 4×10^−4 M, 10 μM Rock inhibitor (Y-27632), 2 ng/mL BMP4 (R&D) and 0.5% Matrigel (Growth Factor Reduced) to a medium after removal of solution C from StemFit AK02 (AJINOMOTO AK02, 400 mL of solution A and 100 mL of B solution, total 500 mL), at 37° C., under 5% oxygen condition (55 rpm, stirred suspension culture method) to form embryoid bodies (0 day).
Next day (1st day), 9 μL (final concentration 3 ng/mL) of 10 μg/mL activin A, 15 μL (final concentration 5 ng/mL) of 10 μg/mL bFGF and […] (final concentration 10 ng/mL) of 10 μg/mL BMP4 were added to the bioreactor, and the cells were cultured at 37° C. for additional 2 days, under 5% oxygen condition.
Then (3rd day), the obtained embryoid bodies were collected in a 50 mL centrifuge tube, and then subjected to centrifugation (200 g, 1 min). The medium was removed, and the embryoid bodies were cultured in a medium prepared by adding 1% L-glutamine, transferrin 150 μg/mL, ascorbic acid 50 μg/mL (Sigma), monothioglycerol 4×10^−4 M, 10 ng/mL VEGF, 1 μM IWP-3, 0.6 μM dorsomorphin and 5.4 μM SB431542 to a medium after removal of solution C from StemFit AK02 (AJINOMOTO AK02, 400 mL of solution A and 100 mL of B solution, total 500 mL), at 37° C. for 3 days, under 5% oxygen condition (55 rpm, stirred suspension culture method).
Then (6th day), the bioreactor was left to stand to precipitate the embryoid bodies, and 80 to 90% of the medium was removed. A medium prepared by adding 1% L-glutamine, transferrin 150 μg/mL, ascorbic acid 50 μg/mL (Sigma), monothioglycerol […] and 5 ng/mL VEGF to a medium after removal of solution C from StemFit AK02 (AJINOMOTO AK02, 400 mL of solution A and 100 mL of B solution, total 500 mL) was added to the bioreactor so that the total volume became 30 mL, and the embryoid bodies were cultured for 8 days, at 37° C., under 5% oxygen condition (55 rpm, stirred suspension culture method). During the culture, the medium was replaced with a medium under the same conditions every 2 to 3 days.
14th Day after the start of the differentiation induction, the embryoid bodies were treated with 2 mg/mL collagenase type I (Sigma) for 2 hr, and then with 0.25% trypsin/EDTA (Invitrogen) for 10 min. 50% FBS/IMDM (Thermo Fisher Science) was added thereto, and the embryoid bodies were dissociated into the single cell by pipetting, and then subjected to centrifugation (1,000 rpm, 5 minutes). […]

COc1ccc(-c2nc3cc(N4Cc5cc(Br)ccc5C4=O)ccc3[nH]2)cc1 [Example 70, 5-bromo-2-(2-(4-methoxyphenyl)-1H-benzimidazol-5-yl)isoindolin-1-one]
average fluorescent intensity (at 1 μM): 998
average fluorescent intensity (at 30 μM): 4335

CCOc1ccc(-c2nc3cc(N4Cc5cc(N(CC)CC)ccc5C4=O)ccc3[nH]2)cc1 [Example 64, 5-(diethylamino)-2-(2-(4-ethoxyphenyl)-1H-benzimidazol-5-yl)isoindolin-1-one]
average fluorescent intensity (at 1 μM): 1328
average fluorescent intensity (at 30 μM): —

COc1ccc(-c2nc3cc(N4Cc5cc(N6CCCCC6)ccc5C4=O)ccc3[nH]2)cc1 [Example 68, 2-(2-(4-methoxyphenyl)-1H-benzimidazol-5-yl)-5-(piperidin-1-yl)isoindolin-1-one]
average fluorescent intensity (at 1 μM): 1301

O=C(COc1ccc(-c2nc3cc(N4Cc5cc(N6CCCCC6)ccc5C4=O)ccc3[nH]2)cc1)NCC1CC1 [Example 27, N-(cyclopropylmethyl)-2-(4-(5-(1-oxo-5-(piperidin-1-yl)-1,3-dihydro-2H-isoindol-2-yl)-1H-benzimidazol-2-yl)phenoxy)acetamide]
average fluorescent intensity (at 1 μM): 1821
average fluorescent intensity (at 30 μM): —

O=C(COc1ccc(-c2nc3cc(N4Cc5cc(N6CCCCC6)ccc5C4=O)ccc3[nH]2)cc1)Nc1ccc(F)cc1 [Example 19, N-(4-fluorophenyl)-2-(4-(5-(1-oxo-5-(piperidin-1-yl)-1,3-dihydro-2H-isoindol-2-yl)-1H-benzimidazol-2-yl)phenoxy)acetamide]
average fluorescent intensity (at 1 μM): 1292
average fluorescent intensity (at 30 μM): 860

O=C1c2ccc(N3CCCCC3)cc2CN1c1ccc2[nH]c(C3CCNCC3)nc2c1 [Example 39, 5-(piperidin-1-yl)-2-(2-(piperidin-4-yl)-1H-benzimidazol-5-yl)isoindolin-1-one]
average fluorescent intensity (at 1 μM): 1042
average fluorescent intensity (at 30 μM): 1026

O=C1c2ccc(N3CCOCC3)cc2CN1c1ccc2[nH]c(-c3ccc(F)cc3)nc2c1 [Example 67, 2-(2-(4-fluorophenyl)-1H-benzimidazol-5-yl)-5-(morpholin-4-yl)isoindolin-1-one]
average fluorescent intensity (at 1 μM): 1367
average fluorescent intensity (at 30 μM): 1188

CCOc1ccc(-c2nc3cc(N4Cc5cc(N6CCOCC6)ccc5C4=O)ccc3n2C)cc1 [Example 59, 2-(2-(4-ethoxyphenyl)-1-methyl-1H-benzimidazol-5-yl)-5-(morpholin-4-yl)isoindolin-1-one]
average fluorescent intensity (at 1 μM): 803
average fluorescent intensity (at 30 μM): 1301

O=C(COc1ccc(-c2nc3cc(N4Cc5cc(N6CCOCC6)ccc5C4=O)ccc3[nH]2)cc1)OCc1ccccc1 [Example 52, benzyl (4-(5-(5-(morpholin-4-yl)-1-oxo-1,3-dihydro-2H-isoindol-2-yl)-1H-benzimidazol-2-yl)phenoxy)acetate]
average fluorescent intensity (at 1 μM): 937
average fluorescent intensity (at 30 μM): 973

O=C(COc1ccc(-c2nc3cc(N4Cc5cc(N6CCCCC6)ccc5C4=O)ccc3[nH]2)cc1)Nc1ccc(Cl)cc1 [Example 21, N-(4-chlorophenyl)-2-(4-(5-(1-oxo-5-(piperidin-1-yl)-1,3-dihydro-2H-isoindol-2-yl)-1H-benzimidazol-2-yl)phenoxy)acetamide]
average fluorescent intensity (at 1 μM): 1120
average fluorescent intensity (at 30 μM): —

O=C(COc1ccc(-c2nc3cc(N4Cc5cc(N6CCCCC6)ccc5C4=O)ccc3[nH]2)cc1)N1CCS(=O)(=O)C1 [Example 16]
average fluorescent intensity (at 1 μM): 1366
average fluorescent intensity (at 30 μM): 3604

COC(=O)COc1ccc(-c2nc3cc(N4Cc5cc(N6CCOCC6)ccc5C4=O)ccc3[nH]2)cc1 [Example 50, methyl (4-(5-(5-(morpholin-4-yl)-1-oxo-1,3-dihydro-2H-isoindol-2-yl)-1H-benzimidazol-2-yl)phenoxy)acetate]
average fluorescent intensity (at 1 μM): 1126
average fluorescent intensity (at 30 μM): 1717

COCc1ccc(-c2nc3cc(N4Cc5cc(N6CCOCC6)ccc5C4=O)ccc3[nH]2)cc1 [Example 66, 2-(2-(4-(methoxymethyl)phenyl)-1H-benzimidazol-5-yl)-5-(morpholin-4-yl)isoindolin-1-one]
average fluorescent intensity (at 1 μM): 1338
average fluorescent intensity (at 30 μM): 1358

CCOc1ccc(-c2nc3cc(N4Cc5cc(N6CCCCC6)ccc5C4=O)ccc3[nH]2)cc1 [Example 65, 2-(2-(4-ethoxyphenyl)-1H-benzimidazol-5-yl)-5-(piperidin-1-yl)isoindolin-1-one]
average fluorescent intensity (at 1 μM): 1245
average fluorescent intensity (at 30 μM): 836

O=C(COc1ccc(-c2nc3cc(N4Cc5cc(N6CCOCC6)ccc5C4=O)ccc3[nH]2)cc1)NCc1ccccc1 [Example 36, N-benzyl-2-(4-(5-(5-(morpholin-4-yl)-1-oxo-1,3-dihydro-2H-isoindol-2-yl)-1H-benzimidazol-2-yl)phenoxy)acetamide]
average fluorescent intensity (at 1 μM): 1006
average fluorescent intensity (at 30 μM): 1743

CC(C)CNC(=O)COc1ccc(-c2nc3cc(N4Cc5cc(N6CCCCC6)ccc5C4=O)ccc3[nH]2)cc1 [Example 26, N-isobutyl-2-(4-(5-(1-oxo-5-(piperidin-1-yl)-1,3-dihydro-2H-isoindol-2-yl)-1H-benzimidazol-2-yl)phenoxy)acetamide]
average fluorescent intensity (at 1 μM): 1809
average fluorescent intensity (at 30 μM): —

O=C1c2ccc(N3CCCCC3)cc2CN1c1ccc2[nH]c(Cc3ccccc3)nc2c1 [Example 2, 2-(2-benzyl-1H-benzimidazol-5-yl)-5-(piperidin-1-yl)isoindolin-1-one]
average fluorescent intensity (at 1 μM): 943
average fluorescent intensity (at 30 μM): 1073

O=C(COc1ccc(-c2nc3cc(N4Cc5cc(N6CCCCC6)ccc5C4=O)ccc3[nH]2)cc1)Nc1ccccc1F [Example 20, N-(2-fluorophenyl)-2-(4-(5-(1-oxo-5-(piperidin-1-yl)-1,3-dihydro-2H-isoindol-2-yl)-1H-benzimidazol-2-yl)phenoxy)acetamide]
average fluorescent intensity (at 1 μM): 1685

CCCCCCOc1ccc(-c2nc3cc(N4Cc5cc(N6CCOCC6)ccc5C4=O)ccc3[nH]2)cc1 [Example 54, 2-(2-(4-(hexyloxy)phenyl)-1H-benzimidazol-5-yl)-5-(morpholin-4-yl)isoindolin-1-one]
average fluorescent intensity (at 1 μM): 838
average fluorescent intensity (at 30 μM): —

O=C1c2ccc(N3CCCCC3)cc2CN1c1ccc2[nH]c(-c3ccccc3)nc2c1 [Example 1, 2-(2-phenyl-1H-benzimidazol-5-yl)-5-(piperidin-1-yl)isoindolin-1-one]
average fluorescent intensity (at 1 μM): 1098
average fluorescent intensity (at 30 μM): —
